Results reported in the OPERA property sets (Mansouri et al. 2018).
Converted amounts (≈) assume the structure as drawn.

Details: not given
With `CC(C)OC(=O)COc1ccc(Cl)cc1Cl` the solubility was 0.142 mM (≈ 37.3 µg/mL).
`O=C(O)c1ccc(Br)cc1` gave a solubility of 0.298 mM (≈ 60 µg/mL).
In the case of `NC(=O)c1cc(Cl)cc(Cl)c1N`, the solubility is reported as 8.29 mM (≈ 1700 µg/mL).
For `CCOc1ccc2nc(S(N)(=O)=O)sc2c1`, the solubility was 0.155 mM (≈ 40 µg/mL).
Work on `CCOP(=S)(OCC)OCCSCC` yielded a solubility of 0.232 mM (≈ 60 µg/mL).

Same assay, conditions: 20 °C
Compound `O=C(O)CN(CP(=O)(O)O)CP(=O)(O)O` has a solubility of 943 mM (≈ 248000 µg/mL).
For `COc1ccc(C=O)c(C(=O)O)c1OC`, the solubility was 11.9 mM (≈ 2500 µg/mL).
For `CC(Cl)C(C)Cl` (stereo not given), the solubility was 4.42 mM (≈ 562 µg/mL).
`Clc1cccc(-c2c(Cl)cccc2Cl)c1` gave a solubility of 0.00015 mM (≈ 0.0386 µg/mL).
`C=C(C(=O)O)c1ccccc1` gave a solubility of 8.77 mM (≈ 1300 µg/mL).
With `Clc1ccc(Cl)c(-c2cc(Cl)c(Cl)c(Cl)c2)c1` the solubility was 4.84e-05 mM (≈ 0.0158 µg/mL).
Compound `NC[C@H](O)c1ccccc1` has a solubility of 334 mM (≈ 45800 µg/mL).
Work on `c1ncc2nc[nH]c2n1` yielded a solubility of 4160 mM (≈ 500000 µg/mL).
For `COC(=O)c1cccnc1`, the solubility was 347 mM (≈ 47600 µg/mL).

Same assay, conditions: 21 °C
With `Brc1cccc2ccccc12` the solubility was 0.045 mM (≈ 9.32 µg/mL).
In the case of `CN(C)[C@@H]1C(O)=C(C(N)=O)C(=O)[C@@]2(O)C(O)=C3C(=O)c4c(O)ccc(Cl)c4[C@@H](O)[C@H]3C[C@@H]12`, the solubility is reported as 3.26 mM (≈ 1520 µg/mL).
Compound `CCOc1ccc(NC(N)=O)cc1` has a solubility of 6.71 mM (≈ 1210 µg/mL).

Same assay, conditions: 22 °C
`O=[N+]([O-])c1ccc(Oc2ccc(Cl)cc2Cl)cc1` showed a solubility of 0.00352 mM (≈ 1 µg/mL).
`CCOC(=O)C(=O)C(=O)OCC` showed a solubility of 3250 mM (≈ 566000 µg/mL).

Same assay, conditions: 24 °C
For `CC(C)CC(=O)CC(C)C`, the solubility was 18.6 mM (≈ 2640 µg/mL).
With `CC(C)Oc1cc(-n2nc(C(C)(C)C)oc2=O)c(Cl)cc1Cl` the solubility was 0.00203 mM (≈ 0.7 µg/mL).
In the case of `O=NN1CCCCC1`, the solubility is reported as 670 mM (≈ 76500 µg/mL).

Same assay, conditions: 25 °C
In the case of `Cc1cccc2ccccc12`, the solubility is reported as 0.181 mM (≈ 25.8 µg/mL).
In the case of `CCCCc1c(C)nc(N(C)C)nc1O`, the solubility is reported as 5.73 mM (≈ 1200 µg/mL).
In the case of `Cc1cc(C)cc(O)c1`, the solubility is reported as 39.9 mM (≈ 4880 µg/mL).
Work on `CCCOC(C)C` yielded a solubility of 46 mM (≈ 4700 µg/mL).
`CCOC(=O)C(C)N(C(=O)c1ccccc1)c1ccc(Cl)c(Cl)c1` (stereo not given) showed a solubility of 0.0546 mM (≈ 20 µg/mL).
Work on `CC1CCC(C(C)C)C(O)C1` (stereo not given) yielded a solubility of 2.91 mM (≈ 455 µg/mL).
Work on `Cc1cc(-c2ccc(N)c(C)c2)ccc1N` yielded a solubility of 6.12 mM (≈ 1300 µg/mL).
`CC(C)CCBr` showed a solubility of 1.3 mM (≈ 196 µg/mL).
`CN1C(=O)C(C)(C2=CCCCC2)C(=O)N=C1O` (stereo not given) showed a solubility of 1.84 mM (≈ 435 µg/mL).
With `CCc1ccc(O)cc1` the solubility was 33.5 mM (≈ 4090 µg/mL).
With `O=C(O)c1cc(=O)cc(C(=O)O)o1` the solubility was 77.7 mM (≈ 14300 µg/mL).
In the case of `C=C[C@H]1CN2CCC1C[C@@H]2[C@@H](O)c1ccnc2ccccc12` (stereo not given in full), the solubility is reported as 0.744 mM (≈ 219 µg/mL).
`CCC(O)(CC)CC` gave a solubility of 145 mM (≈ 16800 µg/mL).
Work on `Clc1cc(-c2cc(Cl)c(Cl)c(Cl)c2Cl)c(Cl)c(Cl)c1Cl` yielded a solubility of 6.33e-07 mM (≈ 0.000272 µg/mL).
Compound `CC(C)C(=O)C(C)C` has a solubility of 49.9 mM (≈ 5700 µg/mL).
Compound `O=C(O)COc1ccc(Cl)c(Cl)c1` has a solubility of 2.07 mM (≈ 457 µg/mL).
`Clc1cccc2c1Oc1ccccc1O2` gave a solubility of 0.00191 mM (≈ 0.417 µg/mL).
Compound `C#C[C@]1(OC(C)=O)CC[C@H]2[C@@H]3CCC4=CC(=O)CC[C@@H]4[C@H]3CC[C@@]21C` has a solubility of 0.0161 mM (≈ 5.47 µg/mL).
`Clc1cccc(Cl)c1-c1c(Cl)cccc1Cl` gave a solubility of 4.08e-05 mM (≈ 0.0119 µg/mL).
`CCCCCCCCCCCCCCCCCC` gave a solubility of 2.36e-05 mM (≈ 0.006 µg/mL).
Compound `Fc1cccc(CCl)c1` has a solubility of 2.86 mM (≈ 414 µg/mL).
In the case of `Clc1ccccc1-c1c(Cl)cc(Cl)c(Cl)c1Cl`, the solubility is reported as 3.68e-05 mM (≈ 0.012 µg/mL).
Work on `Clc1ccc(-c2ccccc2)c(Cl)c1` yielded a solubility of 0.00515 mM (≈ 1.15 µg/mL).
For `COc1cc(C=O)ccc1O`, the solubility was 72.3 mM (≈ 11000 µg/mL).
In the case of `Clc1cc(Cl)c2c(c1Cl)Oc1ccccc1O2`, the solubility is reported as 2.92e-05 mM (≈ 0.00841 µg/mL).
For `c1ccc2[nH]ccc2c1`, the solubility was 30.4 mM (≈ 3560 µg/mL).
In the case of `Clc1ccc(Br)cc1`, the solubility is reported as 0.235 mM (≈ 44.9 µg/mL).

Same assay, conditions: 27 °C
In the case of `Cc1cc2ccccc2c2ccc3ccccc3c12`, the solubility is reported as 0.000256 mM (≈ 0.062 µg/mL).
`Cc1c(C)c2c3ccccc3ccc2c2ccccc12` gave a solubility of 9.75e-05 mM (≈ 0.025 µg/mL).

Same assay, conditions: 28 °C
`COc1ccc(C[C@H]2NC[C@H](O)[C@H]2OC(C)=O)cc1` gave a solubility of 24.7 mM (≈ 6550 µg/mL).
`CCOC(=O)[C@H](Cc1ccccc1)NC(C)=O` showed a solubility of 17.6 mM (≈ 4130 µg/mL).

Same assay, conditions: 30 °C
`ClC(Cl)Br` gave a solubility of 18.5 mM (≈ 3030 µg/mL).
Compound `CC(C)CCC[C@@H](C)[C@H]1CC[C@H]2[C@@H]3CC=C4C[C@@H](O)CC[C@]4(C)[C@H]3CC[C@]12C` has a solubility of 0.000246 mM (≈ 0.095 µg/mL).
